Values of other authors in patent US12539323B2, “Anti-psychotic composition and treatment methods” (priority 2017, dated 2026).

Test system: symptoms of schizophrenia
Settings: pooled meta-analysis of celecoxib and aspirin, eight studies

For `CC(=O)Oc1ccccc1C(=O)O` [aspirin], the “Effect on negative symptoms of schizophrenia” value is listed as “no benefit”, the “Hedges' g, positive symptoms” value is listed as −0.189 and the “Hedges' g, total symptoms” value (trend level) is listed as −0.236.
